Legend:
[1] = refractive index (Na D-line) (dimensionless); wn = mass fraction of the nth substance listed; settings: 100 kPa, Liquid, Standard Abbe refractometry
[2] = wn = mass fraction of the nth substance listed; settings: for surface tension liquid-gas: Maximal bubble pressure; for mass density: 100 kPa, Liquid, Vibrating tube method

CCCCC[n+]1ccccc1.N#C[N-]C#N [1-pentylpyridinium dicyanamide] + O
Settings	mass density [kg/m3]	refractive index	surface tension liquid-gas [mN/m]
[1], 303.15 K, w2 = 0.00159	–	1.5285	–
[1], 303.15 K, w2 = 0.00322	–	1.5282	–
[1], 303.15 K, w2 = 0.00513	–	1.5279	–
[1], 303.15 K, w2 = 0.00661	–	1.5277	–
[1], 303.15 K, w2 = 0.00821	–	1.5274	–
[1], 308.15 K, w2 = 0.00159	–	1.527	–
[1], 308.15 K, w2 = 0.00322	–	1.5268	–
[1], 308.15 K, w2 = 0.00513	–	1.5265	–
[1], 308.15 K, w2 = 0.00661	–	1.5263	–
[1], 308.15 K, w2 = 0.00821	–	1.5261	–
[1], 313.15 K, w2 = 0.00159	–	1.5255	–
[1], 313.15 K, w2 = 0.00322	–	1.5253	–
[1], 313.15 K, w2 = 0.00513	–	1.525	–
[1], 313.15 K, w2 = 0.00661	–	1.5248	–
[1], 313.15 K, w2 = 0.00821	–	1.5245	–
[1], 318.15 K, w2 = 0.00159	–	1.5241	–
[1], 318.15 K, w2 = 0.00322	–	1.5239	–
[1], 318.15 K, w2 = 0.00513	–	1.5236	–
[1], 318.15 K, w2 = 0.00661	–	1.5234	–
[1], 318.15 K, w2 = 0.00821	–	1.5232	–
[1], 323.15 K, w2 = 0.00159	–	1.5228	–
[1], 323.15 K, w2 = 0.00322	–	1.5225	–
[1], 323.15 K, w2 = 0.00513	–	1.5222	–
[1], 323.15 K, w2 = 0.00661	–	1.522	–
[1], 323.15 K, w2 = 0.00821	–	1.5217	–
[1], 328.15 K, w2 = 0.00159	–	1.521	–
[1], 328.15 K, w2 = 0.00322	–	1.5208	–
[1], 328.15 K, w2 = 0.00513	–	1.5205	–
[1], 328.15 K, w2 = 0.00661	–	1.5203	–
[1], 328.15 K, w2 = 0.00821	–	1.5201	–
[1], 333.15 K, w2 = 0.00159	–	1.5192	–
[1], 333.15 K, w2 = 0.00322	–	1.519	–
[1], 333.15 K, w2 = 0.00513	–	1.5188	–
[1], 333.15 K, w2 = 0.00661	–	1.5186	–
[1], 333.15 K, w2 = 0.00821	–	1.5184	–
[1], 338.15 K, w2 = 0.00159	–	1.5177	–
[1], 338.15 K, w2 = 0.00322	–	1.5175	–
[1], 338.15 K, w2 = 0.00513	–	1.5172	–
[1], 338.15 K, w2 = 0.00661	–	1.517	–
[1], 338.15 K, w2 = 0.00821	–	1.5168	–
[2], 303.15 K, w2 = 0.00124	1049.94	–	–
[2], 303.15 K, w2 = 0.00159	–	–	53.3
[2], 303.15 K, w2 = 0.00269	1049.85	–	–
[2], 303.15 K, w2 = 0.00309	–	–	53.7
[2], 303.15 K, w2 = 0.00423	1049.72	–	–
[2], 303.15 K, w2 = 0.00463	–	–	54
[2], 303.15 K, w2 = 0.00567	1049.59	–	–
[2], 303.15 K, w2 = 0.00611	–	–	54.3
[2], 303.15 K, w2 = 0.00714	1049.48	–	–
[2], 303.15 K, w2 = 0.00762	–	–	54.6
[2], 308.15 K, w2 = 0.00124	1046.92	–	–
[2], 308.15 K, w2 = 0.00159	–	–	53.1
[2], 308.15 K, w2 = 0.00269	1046.83	–	–
[2], 308.15 K, w2 = 0.00309	–	–	53.3
[2], 308.15 K, w2 = 0.00423	1046.7	–	–
[2], 308.15 K, w2 = 0.00463	–	–	53.7
[2], 308.15 K, w2 = 0.00567	1046.57	–	–
[2], 308.15 K, w2 = 0.00611	–	–	54
[2], 308.15 K, w2 = 0.00714	1046.45	–	–
[2], 308.15 K, w2 = 0.00762	–	–	54.3
[2], 313.15 K, w2 = 0.00124	1043.92	–	–
[2], 313.15 K, w2 = 0.00159	–	–	52.8
[2], 313.15 K, w2 = 0.00269	1043.82	–	–
[2], 313.15 K, w2 = 0.00309	–	–	53
[2], 313.15 K, w2 = 0.00423	1043.69	–	–
[2], 313.15 K, w2 = 0.00463	–	–	53.4
[2], 313.15 K, w2 = 0.00567	1043.56	–	–
[2], 313.15 K, w2 = 0.00611	–	–	53.7
[2], 313.15 K, w2 = 0.00714	1043.44	–	–
[2], 313.15 K, w2 = 0.00762	–	–	54
[2], 318.15 K, w2 = 0.00124	1040.93	–	–
[2], 318.15 K, w2 = 0.00159	–	–	52.4
[2], 318.15 K, w2 = 0.00269	1040.82	–	–
[2], 318.15 K, w2 = 0.00309	–	–	52.7
[2], 318.15 K, w2 = 0.00423	1040.7	–	–
[2], 318.15 K, w2 = 0.00463	–	–	53
[2], 318.15 K, w2 = 0.00567	1040.56	–	–
[2], 318.15 K, w2 = 0.00611	–	–	53.3
[2], 318.15 K, w2 = 0.00714	1040.44	–	–
[2], 318.15 K, w2 = 0.00762	–	–	53.6
[2], 323.15 K, w2 = 0.00124	1037.95	–	–
[2], 323.15 K, w2 = 0.00159	–	–	52.1
[2], 323.15 K, w2 = 0.00269	1037.84	–	–
[2], 323.15 K, w2 = 0.00309	–	–	52.3
[2], 323.15 K, w2 = 0.00423	1037.72	–	–
[2], 323.15 K, w2 = 0.00463	–	–	52.7
[2], 323.15 K, w2 = 0.00567	1037.57	–	–
[2], 323.15 K, w2 = 0.00611	–	–	53
[2], 323.15 K, w2 = 0.00714	1037.45	–	–
[2], 323.15 K, w2 = 0.00762	–	–	53.3
[2], 328.15 K, w2 = 0.00124	1034.99	–	–
[2], 328.15 K, w2 = 0.00159	–	–	51.8
[2], 328.15 K, w2 = 0.00269	1034.88	–	–
[2], 328.15 K, w2 = 0.00309	–	–	52
[2], 328.15 K, w2 = 0.00423	1034.75	–	–
[2], 328.15 K, w2 = 0.00463	–	–	52.4
[2], 328.15 K, w2 = 0.00567	1034.61	–	–
[2], 328.15 K, w2 = 0.00611	–	–	52.7
[2], 328.15 K, w2 = 0.00714	1034.48	–	–
[2], 328.15 K, w2 = 0.00762	–	–	53
[2], 333.15 K, w2 = 0.00124	1032.05	–	–
[2], 333.15 K, w2 = 0.00159	–	–	51.5
[2], 333.15 K, w2 = 0.00269	1031.93	–	–
[2], 333.15 K, w2 = 0.00309	–	–	51.8
[2], 333.15 K, w2 = 0.00423	1031.8	–	–
[2], 333.15 K, w2 = 0.00463	–	–	52.1
[2], 333.15 K, w2 = 0.00567	1031.65	–	–
[2], 333.15 K, w2 = 0.00611	–	–	52.4
[2], 333.15 K, w2 = 0.00714	1031.52	–	–
[2], 333.15 K, w2 = 0.00762	–	–	52.7
[2], 338.15 K, w2 = 0.00124	1029.11	–	–
[2], 338.15 K, w2 = 0.00159	–	–	51.3
[2], 338.15 K, w2 = 0.00269	1029	–	–
[2], 338.15 K, w2 = 0.00309	–	–	51.6
[2], 338.15 K, w2 = 0.00423	1028.86	–	–
[2], 338.15 K, w2 = 0.00463	–	–	51.9
[2], 338.15 K, w2 = 0.00567	1028.71	–	–
[2], 338.15 K, w2 = 0.00611	–	–	52.2
[2], 338.15 K, w2 = 0.00714	1028.58	–	–
[2], 338.15 K, w2 = 0.00762	–	–	52.4
